Data as given in US12441733B2, “Substituted 2,4-dioxotetrahydropyrimidines as intermediates in the synthesis of bruton's tyrosine kinase inhibitors” (Novartis AG, priority 2018, dated 2025).

Key:
Assay type in all cases: cell-based
BTK-GFP = target: T1, BTK-GFP (Homo sapiens, UniProt Q06187+Q96SW2); test: BTK-GFP protein abundance flow cytometry assay in HEK293A cells; details: HEK293A BTK-GFP-iresRFP cells, 24 h; for DC50: GFP signal by flow cytometry, concentration at which 50% maximal degradation was observed; for BTK deg Amax: % protein remaining at the concentration at which maximum degradation is seen
T1 construct: expressed in transfected cells; host or cells: HEK293A (Invitrogen R70507), lentiviral transduction with pLenti6-BTK-GFP-Ires-RFP, blasticidin selection
T1 sequence (Q06187 whole entry): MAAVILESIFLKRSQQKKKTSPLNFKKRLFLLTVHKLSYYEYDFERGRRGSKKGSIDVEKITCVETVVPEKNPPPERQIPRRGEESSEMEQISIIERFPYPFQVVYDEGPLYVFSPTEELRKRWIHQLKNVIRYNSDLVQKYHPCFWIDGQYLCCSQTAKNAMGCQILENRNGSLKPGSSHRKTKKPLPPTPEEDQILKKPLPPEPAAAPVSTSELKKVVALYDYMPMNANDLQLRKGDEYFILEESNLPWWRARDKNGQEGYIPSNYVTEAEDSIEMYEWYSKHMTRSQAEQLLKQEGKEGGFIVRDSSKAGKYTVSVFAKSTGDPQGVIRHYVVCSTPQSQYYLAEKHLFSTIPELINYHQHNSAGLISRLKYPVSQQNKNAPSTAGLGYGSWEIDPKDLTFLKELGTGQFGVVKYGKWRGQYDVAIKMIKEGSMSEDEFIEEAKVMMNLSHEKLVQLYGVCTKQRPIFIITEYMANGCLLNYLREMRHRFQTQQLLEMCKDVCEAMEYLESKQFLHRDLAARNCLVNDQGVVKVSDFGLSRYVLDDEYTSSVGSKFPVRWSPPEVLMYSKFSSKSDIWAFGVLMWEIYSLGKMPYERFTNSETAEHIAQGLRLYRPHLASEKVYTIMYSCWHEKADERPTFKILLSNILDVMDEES
T1 sequence (Q96SW2 whole entry): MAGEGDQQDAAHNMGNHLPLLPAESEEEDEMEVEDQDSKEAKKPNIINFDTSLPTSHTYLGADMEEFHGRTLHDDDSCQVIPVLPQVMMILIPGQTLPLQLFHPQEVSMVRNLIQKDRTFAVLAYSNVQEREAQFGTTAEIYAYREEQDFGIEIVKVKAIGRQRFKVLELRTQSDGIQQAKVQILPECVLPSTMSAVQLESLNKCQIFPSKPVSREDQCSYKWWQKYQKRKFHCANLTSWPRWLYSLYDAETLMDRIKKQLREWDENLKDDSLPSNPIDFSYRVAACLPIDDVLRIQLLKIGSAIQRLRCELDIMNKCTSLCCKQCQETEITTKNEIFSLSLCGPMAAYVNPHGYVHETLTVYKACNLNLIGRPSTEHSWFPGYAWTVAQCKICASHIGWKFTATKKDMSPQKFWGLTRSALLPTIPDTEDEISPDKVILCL
T1 sequence (Q16531 whole entry partner): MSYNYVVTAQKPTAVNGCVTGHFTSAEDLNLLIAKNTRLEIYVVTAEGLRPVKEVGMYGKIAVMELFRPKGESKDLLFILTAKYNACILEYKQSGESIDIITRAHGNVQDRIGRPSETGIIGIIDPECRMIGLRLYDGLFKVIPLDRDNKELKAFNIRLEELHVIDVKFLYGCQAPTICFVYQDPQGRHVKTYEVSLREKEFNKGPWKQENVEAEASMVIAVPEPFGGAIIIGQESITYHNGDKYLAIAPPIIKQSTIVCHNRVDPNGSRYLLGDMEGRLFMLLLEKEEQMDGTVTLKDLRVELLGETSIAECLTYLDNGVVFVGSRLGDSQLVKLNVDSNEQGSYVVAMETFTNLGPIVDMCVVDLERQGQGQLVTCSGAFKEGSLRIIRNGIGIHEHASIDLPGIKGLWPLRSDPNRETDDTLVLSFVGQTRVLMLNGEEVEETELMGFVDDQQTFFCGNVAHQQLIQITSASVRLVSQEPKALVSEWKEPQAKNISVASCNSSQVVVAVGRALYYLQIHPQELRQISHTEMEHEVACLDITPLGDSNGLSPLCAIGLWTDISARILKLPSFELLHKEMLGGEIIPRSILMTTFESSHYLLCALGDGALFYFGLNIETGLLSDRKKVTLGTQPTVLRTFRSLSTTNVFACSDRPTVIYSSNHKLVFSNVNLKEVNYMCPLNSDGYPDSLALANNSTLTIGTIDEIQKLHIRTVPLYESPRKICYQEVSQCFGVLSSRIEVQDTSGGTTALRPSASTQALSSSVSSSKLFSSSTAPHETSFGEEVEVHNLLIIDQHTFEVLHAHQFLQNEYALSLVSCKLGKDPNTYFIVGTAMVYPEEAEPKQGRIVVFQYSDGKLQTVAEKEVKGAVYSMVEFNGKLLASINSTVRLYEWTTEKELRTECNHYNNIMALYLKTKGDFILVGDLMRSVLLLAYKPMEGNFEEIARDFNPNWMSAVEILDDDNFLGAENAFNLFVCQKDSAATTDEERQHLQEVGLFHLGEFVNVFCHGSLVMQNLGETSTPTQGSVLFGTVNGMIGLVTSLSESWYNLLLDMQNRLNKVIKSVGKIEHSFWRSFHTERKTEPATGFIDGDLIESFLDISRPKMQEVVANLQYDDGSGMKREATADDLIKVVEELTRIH
Procedure: (§1) Compounds of the invention were tested in the following cellular assays. The terms in Table 2 are defined as follows: DC50 refers to the concentration at which 50% maximal degradation was observed; deg Amax is the extent of degradation and the value refers to the % protein remaining at the concentration at which maximum degradation is seen; ProI GI50 refers to the proliferation data and defines the concentration at which 50% growth inhibition was observed compared to the vehicle treated control at the end of the incubation time. TMD8 cells are BTK dependent and OCI-LY3 cells are BTK independent.
BTK-GFP and IKZF3-GFP protein abundance flow cytometry assay in HEK293A cells:
Degradation of BTK or IKZF3 was measured in HEK293A cells (Invitrogen R70507) expressing either BTK-GFP and RFP or IKZF3-GFP and RFP from a stably integrated bicistronic BTK-GFP-iresRFP or IKZF3-GFP-iresRFP construct, respectively. Reduction of the GFP signal measured by flow cytometry served as readout for BTK or IKZF3 degradation after degrader treatment.
i) Cloning of the pLenti6-BTK-GFP-1Res-RFP and IKZF3-GFP-Ires-RFP Sensor Vectors
The bicistronic BTK-GFP-iresRFP construct is based on a pLenti6-DEST vector backbone where GFP was introduced into the unique Xho1 site downstream of the destination cassette (DEST) and RFP was cloned behind an internal ribosomal entry site (Ires).
In detail, the sensor construct was engineered by replacing NanoLuciferase (NLuc) by GFP and FireFly luciferase (FF) by RFP from pLenti6-DEST-NLuc-Ires-FF.
The pLenti6-DEST-NLuc-Ires-FF sensor construct was cloned by replacing eGFP from pLenti6-DEST-ires-eGFP with a synthesized stuffer element (encoding Ires-FF with FF flanked by two Nhe1 restriction sites) using blunt end cloning replacing Ires-eGFP between the two PmII. To enable C-terminal tagging with NanoLuciferase (NLuc), NLuc was amplified from pNL1.1 (Promega #N1001) using linker primers with Xho1 sites for ligating into linearized pLenti6-DEST-Ires-FF using Xho1 digest resulting in the construct pLenti6-DEST-NLuc-Ires-FF.
The pLenti6-DEST-NLuc-Ires-FF served as base vector for cloning pLenti6-DEST-GFP-Ires-RFP using Gibson assembly to replace FF with RFP and NLuc with GFP. In a first round FF was replaced by RFP by amplifying RFP from a template using the following Gibson assembly linker primers (Gibson-Nhe1 RFPfw, […]gctagc[…] (SEQ ID NO: 1); Gibson-Nhe1 RFP-Stoprev, […]ctagc[…] (SEQ ID NO: 2)) to clone into pLenti6-DEST-NLuc-Ires-FF digested with Nhe1 and gel-purified to remove the FF fragment. The resulting pLenti6-DEST-NLuc-Ires-RFP vector served as the template to replace NLuc with GFP by amplifying GFP from a template using following Gibson assembly linker primers (Gibson-Xho1 GFPfw, […]c[…] (SEQ ID NO: 3); Gibson-Xho1 GFP-Stoprev, […] (SEQ ID NO: 4)) to clone into pLenti6-DEST-NLuc-Ires-RFP digested with Xho1 and gel-purified to remove the NLuc fragment. All Gibson assembly reactions were performed with Gibson assembly Master Mix (New England Biolabs NEB E261 IL) according to manufacturer's manual, resulting in the destination vector pLenti6-DEST-GFP-Ires-RFP to allow Gateway cloning. To enable gateway cloning and C-terminal GFP tagging of BTK, the BTK open reading frame (ORF) was first shuttled from a pcDNA-DEST40-BTK vector (Invitrogen library ID INV_20090504v1) into pDONR221 (Invitrogen 12536-017) vector using a gateway BP reaction according to the manufacturer's manual (Invitrogen 11789-013) resulting in the novel construct pENTR221-BTK. For C-terminal tagging the STOP codon was mutated to a leucine performing a mutagenesis reaction with the following primers (pENTR221-BTK Quikchange STOP-Leu fw, gtcatggatgaagaatccTTGaacccagctttcttgtac; pENTR221-BTK Quikchange STOP-Leu REVC, gtacaagaaagctgggttCAAggattcttcatccatgac) using the QuikChange Lightning mutagenesis kit (Agilent Technologies #210518) according to the manufacturer's manual, resulting in pENTR221-BTK (STOP-Leu). […]

TMD8 cells = test: Resazurin cell viability (proliferation) assay in TMD8 DLBCL cells; details: Homo sapiens, TMD8 cells (BTK dependent), 72 h, 50% growth inhibition vs vehicle, read-out: TMD8 Prol GI50
Procedure: as §1
(§2) Cell Viability Assay in DLBCL (Diffuse Large B-Cell Lymphoma) Cells:
(§3) The effect of the BTK compounds on cell proliferation was measured by a Resazurin (Sigma, #R7017) based cell viability assay. TMD8 (BTK compound sensitive) and OCI-LY3 (BTK compound insensitive) cells were incubated for 72 h at 37° C. and 5% CO2 with the corresponding compound, Resazurin is a non-toxic, cell-permeable substrate that is virtually non-fluorescent. Upon entering living cells, Resazurin (Sigma, #R7017) is reduced to highly fluorescent Resorufin. The metabolic activity was assessed by measuring the fluorescence signal (ex. 530 nm; em. 600 nm).
(§4) TMD8 and OCI-Ly3 cells were seeded at day 0 in triplicates at a cell density of 1×10^4 cells per 150 μl/well in a 96-well plate (Costar #3904). Additional plates were prepared, in order to assess the basal metabolic activity of both cell lines at the beginning of the experiment. For these reference plates, Resazurin (Sigma, #R7017) was added to a final concentration of 13 μg/ml 3 h post seeding and was incubated for 2 h at 37° C. and 5% CO2. Following incubation, the fluorescent signal intensity of the 96-well plates was measured on a Mithras LB940 multimode plate reader at 530/600 nm (Berthold Technologies, Germanyl).
(§5) In parallel, 3 h post-seeding, test-plates were treated with compound at various concentrations, or with vehicle (DMSO) alone for 3 days. The compound addition to the plates was performed by using a HP D300 digital dispenser (TECAN, Switzerland). The compounds were tested in triplicate, 8-point serial dilution (1:4), with a start concentration of 10 μM for OCI-LY3 and 1 μM for the TMD8 cells, respectively. To assess the relative proliferation of the cells, Resazurin was added to each well directly to the medium to a final concentration of 13 μg/ml. The plates were incubated for 2 h at 37° C. and 5% CO2 to result in a 72 h endpoint. Following incubation, the fluorescent signal intensity of the 96-well plates were measured on a Mithras LB940 multimode plate reader at 530/600 nm (Berthold Technologies, Germanyl). The formation of Resorufin dye directly correlates with the number of metabolically active cells. For each triplicate treatment the mean and standard deviation were calculated and analyzed via curve fitting software to determine the respective compound concentration resulting in 50% growth inhibition (GI50) values. For each compound GI50 values were typically determined from at least 2 entirely independent experiments.
TMD8 cells were acquired through a license agreement with Tokyo Medical and Dental University, Japan. Cells are cultivated in MEM Alpha (BioConcept, #1-23F01-1, lot. LB04262P) supplemented with 10% FCS (HyClone, GE #SH30066.03, lot AB3217603), 2 mM L-Glutamine (BioConcept, #5-10K50-H, lot. LA03467P), 1% Pen/Strep (BioConcept, #4-01F00-H, lot. LB04235P).

OCI-LY3 cells = test: Resazurin cell viability (proliferation) assay in OCI-LY3 DLBCL cells; details: Homo sapiens, OCI-LY3 cells (BTK independent), 72 h, 50% growth inhibition vs vehicle, read-out: OCI-LY3 Prol GI50
Procedure: as §1, §2, §3, §4, §5
OCI-LY3 cells were acquired through a license agreement with University Health Network, Toronto, Canada. Cells are cultivated in RPM11640 media (Gibco, #61870-010, lot. 1894759), supplemented with 10% FCS (HyClone, GE #SH30066.03, lot AB217603), 2 mM L-Glutamine (BioConcept, #5-10K50-H, lot. LA03467P), 1 mM Sodium Pyruvate (BioConcept, #5-60F00-H, lot. LB10510P), 10 mM HEPES (Gibco, #15630-056, lot. 1854074), 1% Pen/Strep (BioConcept, #4-01F00-H, lot. LB04235P).

Row | SMILES | DC50 (BTK-GFP) | BTK deg Amax (BTK-GFP) | GI50 (OCI-LY3 cells) | GI50 (TMD8 cells)
1 | COc1ccc(C(=O)N2CCC(CCN3CCC(COc4ccc(-c5cc6c(-c7cc(F)cc(NC(=O)c8ccc(C(C)(C)O)cc8F)c7C)ncnc6[nH]5)cc4)CC3)CC2)cc1N1CCC(=O)NC1=O [Compound 43, N-(3-(6-(4-((1-(2-(1-(3-(2,4-dioxotetrahydropyrimidin-1(2H)-yl)-4-methoxybenzoyl)piperidin-4-yl)ethyl)piperidin-4-yl)methoxy)phenyl)-7H-pyrrolo[2,3-d]pyrimidin-4-yl)-5-fluoro-2-methylphenyl)-2-fluoro-4-(2-hydroxypropan-2-yl)benzamide] | 1 nM | 2.3% | 3340 nM | 0.68 nM
2 | Cc1ccc(C(=O)N2CCC(OC3CCN(CCc4ccc(-c5cc6c(-c7cc(F)cc(NC(=O)c8ccc(C(C)(C)O)cc8F)c7C)ncnc6[nH]5)cc4)CC3)CC2)cc1N1CCC(=O)NC1=O [Compound 10, N-(3-(6-(4-(2-(4-((1-(3-(2,4-Dioxotetrahydropyrimidin-1(2H)-yl)-4-methylbenzoyl)piperidin-4-yl)oxyl)piperidin-1-yl)ethyl)phenyl)-7H-pyrrolo[2,3-d]pyrimidin-4-yl)-5-fluoro-2-methylphenyl)-2-fluoro-4-(2-hydroxypropan-2-yl)benzamide] | 0.7 nM | 2.3% | 5940 nM | 0.36 nM
3 | COc1ccc(C(=O)N2CCC(CCCN3CCC(Oc4ccc(-c5cc6c(-c7cc(F)cc(NC(=O)c8ccc(C(C)(C)O)cc8F)c7C)ncnc6[nH]5)cc4)CC3)CC2)cc1N1CCC(=O)NC1=O [Compound 15, N-(3-(6-(4-((1-(3-(1-(3-(2,4-Dioxotetrahydropyrimidin-1(2H)-yl)-4-methoxybenzoyl)piperidin-4-yl)propyl)piperidin-4-yl)oxyl)phenyl)-7H-pyrrolo[2,3-d]pyrimidin-4-yl)-5-fluoro-2-methylphenyl)-2-fluoro-4-(2-hydroxypropan-2-yl)benzamide] | 0.4 nM | 1.6% | 3380 nM | 0.56 nM

Now from value to molecule, other results behind:

Row | DC50 (BTK-GFP) | BTK deg Amax (BTK-GFP) | GI50 (OCI-LY3 cells) | SMILES | GI50 (TMD8 cells)
4 | 78.4 nM | 7.2% | > 10000 nM | COc1ccc(C(=O)N2CCC3(CCN(Cc4ccc(-c5cc6c(-c7cc(F)cc(NC(=O)c8ccc(C(C)(C)O)cc8F)c7C)ncnc6[nH]5)cc4)C[C@H]3CO)CC2)cc1N1CCC(=O)NC1=O (single isomer, unassigned) [Compound 25] | 11.4 nM
5 | > 124 nM | 53.8% | 7940 nM | COc1ccc(C(=O)N2CCC3(CCN(Cc4ccc(-c5cc6c(-c7cc(F)cc(NC(=O)c8ccc(C(C)(C)O)cc8F)c7C)ncnc6[nH]5)cc4)CC3)C2)cc1N1CCC(=O)NC1=O [Compound 55, N-(3-(6-(4-((2-(3-(2,4-dioxotetrahydropyrimidin-1(2H)-yl)-4-methoxybenzoyl)-2,8-diazaspiro[4.5]decan-8-yl)methyl)phenyl)-7H-pyrrolo[2,3-d]pyrimidin-4-yl)-5-fluoro-2-methylphenyl)-2-fluoro-4-(2-hydroxypropan-2-yl)benzamide] | 7.01 nM
6 | 25 nM | 4.3% | 4760 nM | COc1ccc(C(=O)NCCCCN2CCN(Cc3ccc(-c4cc5c(-c6cc(F)cc(NC(=O)c7ccc(C(C)(C)O)cc7F)c6C)ncnc5[nH]4)cc3)CC2)cc1N1CCC(=O)NC1=O [Compound 26, N-(3-(6-(4-((4-(4-(3-(2,4-Dioxotetrahydropyrimidin-1(2H)-yl)-4-methoxybenzamido)butyl)piperazin-1-yl)methyl)phenyl)-7H-pyrrolo[2,3-d]pyrimidin-4-yl)-5-fluoro-2-methylphenyl)-2-fluoro-4-(2-hydroxypropan-2-yl)benzamide] | 1.92 nM
7 | 59.5 nM | 8.8% | 8920 nM | Cc1c(NC(=O)c2ccc(C(C)(C)O)cc2F)cc(F)cc1-c1ncnc2[nH]c(-c3ccc(CNCCCCCN(C)C(=O)c4ccc(Cl)c(N5CCC(=O)NC5=O)c4)cc3)cc12 [Compound 42, 4-chloro-3-(2,4-dioxotetrahydropyrimidin-1(2H)-yl)-N-(5-((4-(4-(5-fluoro-3-(2-fluoro-4-(2-hydroxypropan-2-yl)benzamido)-2-methylphenyl)-7H-pyrrolo[2,3-d]pyrimidin-6-yl)benzyl)amino)pentyl)-N-methylbenzamide] | 5.34 nM
